Data on two compounds can be found in publication PMC8290231 (Cancer Medicine, 2021).

Molecules are shown by their SMILES. Like-named read-outs stand apart in the source and are kept apart here. A value given as a limit tells only on which side of the number the result lay.

One assay has as its system A549. Nature of the assay: CCK-8 cell proliferation assay. The conditions noted are these: Homo sapiens, A549, 72 h, negative control; CCK-8, 72 h; read-out: antiproliferative IC50, A549. In kind it is cell-based. The procedure: (§1) The base medium for MDA‐MB‐453 cell line is DMEM medium (CORNING, USA). All other cell lines were cultured in RPMI‐1640 medium supplemented with 10% FBS, 100 U/ml of penicillin, and […] of streptomycin in 5% CO2 at 37℃. The cells in the logarithmic growth phase were used for the experiments.
(§2) Cells were seeded in 96‐well plate in complete medium (1000–6000 cells/well) and cultured for overnight. Then the cells were exposed to gradient concentrations (0.0005–10 μM) of compounds. Cell proliferation was analyzed by Cell Counting Kit 8 (CK04, Dojindo Laboratories, Japan) after co‐incubation for a further 72 h. IC50 values were calculated by fitting of concentration–response curves using GraphPad Prism 8.01 software. Each assay was repeated at least three times.
(§3) The expression and activation levels of FGFR1–4 in these cells were determined via western blot experiments (Figure S1).
Background: Formazan colour is commonly taken as a measure of viable cells.

A further assay has as its system Ba/F3(+IL‐3). Nature of the assay: CCK-8 proliferation assay in parental Ba/F3 cells. In kind it is cell-based. The conditions noted are these: Mus musculus, read-out: IC50 (μΜ) Ba/F3(+IL‐3). The procedure: The Ba/F3 cell lines stably expressing FGFR1, FGFR1‐V561M, FGFR1‐V561F, FGFR1‐K656N, and FGFR1‐K656E were self‐established through electroporation pCDNA3.1‐TEL plasmids using the Amaxa Cell Line Nucleofector Kit V (Lonza, Cologne, Germany). Stable cell lines were selected by G418 (Merck, USA) and then withdrawal of IL‐3 (R&D). […] Parental Ba/F3 cells were maintained in RPMI 1640 supplemented with 10% FBS, 100 U/ml of penicillin, […] of streptomycin, and 10 ng/ml of IL‐3, while all Ba/F3 stable cell lines were cultured in the same medium without IL‐3.
as §2
There is, however, no commercially available FGFR1 mutant kinase to validate this. Therefore, we constructed Ba/F3 model cells stably expressing FGFR1‐WT, K656E, K656N, V561M, and V561F mutations.

The test system of assay [1] is Ba/F3‐FGFR1‐V561F. Nature of the assay: Cell cycle analysis by flow cytometry (propidium iodide). In kind it is cell-based. The procedure:
About 6 × 10^5 cells were re‐suspended in 150 μl of BD Cytofix/Cytoperm buffer solution I for 10 min at room temperature. The cell suspensions were added with BD Cytofix/Cytoperm buffer solution II and incubated with another 10 min at room temperature, and then incubated with 200 μl of propidium iodide buffer (0.1 mg/ml) in the dark for 10 min at 4℃. Assays were performed with a Guava easyCyte flow cytometer (Merck, USA).

For assay [2], the system named is Ba/F3‐FGFR1‐V561F. As to the kind of experiment: Apoptosis assay by flow cytometry (Annexin V / 7-AAD). In kind it is cell-based. The procedure: After incubation, cells were collected and washed twice with pre‐cold PBS. About 6 × 10^5 cells were resuspended in 100 μl of 1× BD binding buffer solution (#556454, BD), and then stained with 7‐ADD (#559925, BD) and Annexin V‐PE (#556422, BD) in the dark for 15 min. Finally, 400 μl of 1×BD binding buffer solution were added to stop dyeing. The cells were then measured on a Guava easyCyte flow cytometer (Merck, USA).

Another assay concerns Ba/F3‐FGFR1 xenograft. Nature of the assay: Mouse xenograft tumor model. Type of assay: in vivo, CB17‐SCID mice. The conditions noted are these: for tumor growth inhibition (TGI): oral gavage. The source says: (§4) All animal studies were approved by the Institutional Animal Care and Use Committee. Male CB17‐SCID mice were purchased from Vital River Laboratory Animal Technology Inc. (Beijing, China). The right flanks of SCID mice were subcutaneously injected with 2 x 10^6 Ba/F3‐FGFR1, Ba/F3‐FGFR1‐V561F, or Ba/F3‐FGFR1‐V561M cells, respectively. When the average tumor volume reached 100–200 mm^3, mice bearing tumor were randomly divided into groups and treated with compounds or vehicle. All the compounds were suspended in 0.5% CMC‐Na aqueous solution. […] The body weight and tumor volume of animals were measured once every 2 days. Tumor volumes were calculated as L×W×W/2, where L and W are the length and width of the tumor, respectively. At the experiment terminal, tumor tissues were dissected, paraffin embedded, and sectioned for hematoxylin and eosin (H&E), immunohistochemistry (IHC), and TUNEL analysis.

Assay [3] deals with Ba/F3‐FGFR1‐V561F xenograft. Nature of the assay: Mouse xenograft tumor model. Type of assay: in vivo, CB17‐SCID mice.
From the text: as §4

For assay [4], the target named is T1, FGFR2 (Homo sapiens, UniProt P21802). Nature of the assay: FRET-based Z′-Lyte kinase assay. Type of assay: biochemical.
The target in assay [5] is T1, FGFR2. As to the kind of experiment: KINOMEscan binding affinity assay.
Another assay has as its target FGFR4 (Homo sapiens, UniProt P22455). Nature of the assay: KINOMEscan binding affinity assay.
The next assay has as its system A204. Nature of the assay: CCK-8 cell proliferation assay. In kind it is cell-based. Conditions: Homo sapiens, A204; FGFR1 amplification; CCK-8, 72 h; read-out: antiproliferative IC50, A204. The procedure: as §1, §2, §3
Another assay has as its system FGFR1–FGFR3 cell lines. Nature of the assay: CCK-8 proliferation, cancer cells harboring FGFR aberrations (summary range). Conditions: range over cell lines of Table 2; read-out: antiproliferative IC50 values, FGFR1–FGFR3 cell lines. In kind it is cell-based. As to the method:
as §2, §3

For assay [6], the system named is FGFR1 signal pathway in H1581. Nature of the assay: Western blot of FGFR1 signal pathway. In kind it is cell-based. As to the method: (§5) Cells were treated with different concentrations of compound or DMSO for indicated time. Then, cells were lysed with 1 × SDS sample lysis buffer (recommended by CST). […] After blocking with 5% BSA in TBST solution (0.5% Tween‐20) at room temperature for 4 hrs, the membranes were incubated with the corresponding primary antibody (1:2000–1:200) at 4℃ overnight. After washing with TBST for 3–5 times, the HRP‐conjugated secondary antibodies were incubated for 2 hrs. The protein signals were detected with Amersham Imager 600 system (GE, Boston, MA, USA) using an ECL western blotting detection kit (Thermo Fisher Scientific, Waltham, MA, USA).
Cell lysates were separated by sodium dodecyl sulfate‐polyacrylamide gel electrophoresis (SDS‐PAGE) and analyzed by western blot for phosphorylated FGFR1, FGFR1, phosphorylated FRS2, FRS2, phosphorylated AKT (Ser473), AKT, phosphorylated Erk, and Erk. GAPDH was used as a control
On the technique in general: In western blotting, separated proteins are transferred to a membrane and probed.

Assay [7] deals with FGFR1 in all Ba/F3 stable cells. Nature of the assay: Western blot of total FGFR1 protein. In kind it is cell-based. Conditions: 4 h. As to the method:
as §5
However, its effects on FGFR1 downstream signal pathway in A549 cells were very weak as a negative control.

T1 sequence (P21802 22-821): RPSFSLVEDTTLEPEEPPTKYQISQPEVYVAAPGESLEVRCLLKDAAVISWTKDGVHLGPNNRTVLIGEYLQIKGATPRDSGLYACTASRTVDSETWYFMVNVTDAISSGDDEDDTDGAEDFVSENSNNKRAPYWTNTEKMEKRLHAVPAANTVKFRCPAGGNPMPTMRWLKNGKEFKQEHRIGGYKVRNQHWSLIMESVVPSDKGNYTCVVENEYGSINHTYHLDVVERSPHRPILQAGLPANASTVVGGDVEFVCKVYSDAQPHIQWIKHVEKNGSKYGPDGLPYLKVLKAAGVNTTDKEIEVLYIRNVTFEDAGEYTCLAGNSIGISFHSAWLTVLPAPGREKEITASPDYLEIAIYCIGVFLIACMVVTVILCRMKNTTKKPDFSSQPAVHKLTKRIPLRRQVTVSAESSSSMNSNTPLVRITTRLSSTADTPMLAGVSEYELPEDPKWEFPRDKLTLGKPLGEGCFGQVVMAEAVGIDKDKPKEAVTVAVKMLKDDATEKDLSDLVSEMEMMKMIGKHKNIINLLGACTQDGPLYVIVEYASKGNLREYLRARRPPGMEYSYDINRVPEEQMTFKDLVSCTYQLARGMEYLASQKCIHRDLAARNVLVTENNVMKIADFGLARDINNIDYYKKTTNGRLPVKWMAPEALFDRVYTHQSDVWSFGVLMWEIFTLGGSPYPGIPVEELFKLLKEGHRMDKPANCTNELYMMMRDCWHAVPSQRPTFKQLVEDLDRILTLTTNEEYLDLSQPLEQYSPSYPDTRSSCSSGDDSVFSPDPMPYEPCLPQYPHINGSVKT
Chain of FGFR4 (P22455 22-802): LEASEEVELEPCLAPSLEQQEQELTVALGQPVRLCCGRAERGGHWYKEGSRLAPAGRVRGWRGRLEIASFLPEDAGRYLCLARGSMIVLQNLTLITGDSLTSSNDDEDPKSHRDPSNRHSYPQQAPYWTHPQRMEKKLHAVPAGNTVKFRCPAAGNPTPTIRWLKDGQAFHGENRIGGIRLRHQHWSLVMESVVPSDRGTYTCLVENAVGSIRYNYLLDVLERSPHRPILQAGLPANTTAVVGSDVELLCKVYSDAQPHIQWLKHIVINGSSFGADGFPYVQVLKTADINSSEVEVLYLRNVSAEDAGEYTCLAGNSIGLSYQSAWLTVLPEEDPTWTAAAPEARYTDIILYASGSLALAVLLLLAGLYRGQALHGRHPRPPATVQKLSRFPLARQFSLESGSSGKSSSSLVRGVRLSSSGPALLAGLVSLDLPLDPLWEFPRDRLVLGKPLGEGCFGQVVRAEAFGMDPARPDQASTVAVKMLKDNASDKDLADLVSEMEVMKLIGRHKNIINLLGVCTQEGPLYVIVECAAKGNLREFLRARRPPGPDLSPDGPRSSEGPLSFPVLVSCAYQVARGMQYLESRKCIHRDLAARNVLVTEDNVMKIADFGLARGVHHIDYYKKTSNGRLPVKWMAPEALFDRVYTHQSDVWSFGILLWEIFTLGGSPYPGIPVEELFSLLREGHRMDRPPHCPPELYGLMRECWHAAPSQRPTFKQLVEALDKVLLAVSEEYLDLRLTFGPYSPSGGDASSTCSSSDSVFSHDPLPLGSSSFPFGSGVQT

Consider `CCN1CCN(c2ccc(Nc3cc(N(C)C(=O)Nc4c(Cl)c(OC)cc(OC)c4Cl)ncn3)cc2)CC1` [BGJ398], for which the IC50 is 8730 ± 1930 nM with A549 and 5660 ± 880 nM in the assay with Ba/F3(+IL‐3) (BaF3, parental cells with IL-3, CCK-8, 72 h). For the same compound, the “effect on cell cycle” value in the assay with Ba/F3‐FGFR1‐V561F [1] (1000 nM) was “weak effect”. In addition, the effect on apoptosis result in the assay with Ba/F3‐FGFR1‐V561F [2] (1000 nM) is given as “weak effect”. In addition, the “tumor growth inhibition (TGI)” value in the assay with Ba/F3‐FGFR1 xenograft (10 mg/kg, once every day) turned out to be 64.2%; in assay [3] (30 mg/kg, oral gavage, once every day) it was 2.4%.
Usually EC50 stands for the concentration needed to bring the measured effect to its halfway point. As usually defined, the Kd is the free concentration of one partner at which half of the binding sites on the other are occupied at equilibrium, for simple one-to-one binding. Read a high Kd as a looser complex. Regarding `Cc1ccc(C(=O)Nc2ccc(CN3CCN(C)CC3)c(C(F)(F)F)c2)cc1C#Cc1cnc2[nH]ncc2c1` [GZD824], the IC50 against FGFR2 [4] was 2.77 ± 0.082 nM; in the assay with A204, 24.4 ± 6.2 nM; in the assay on Ba/F3(+IL‐3) (BaF3, 72 h), 1710 ± 590 nM; in the assay on FGFR1–FGFR3 cell lines, 4 to 91 nM. Besides, a half-maximal effect on FGFR2 [4] (Figure 1B curve fit) (EC50) was put at 2.72 nM. Moreover, the Kd was determined as 15.5 ± 3.5 nM at FGFR2 [5] and 19 ± 1.4 nM at FGFR4. Further, in the assay with Ba/F3‐FGFR1‐V561F [1] (100 nM, 24 h), the G0/G1 phase is on record as 71.13%. In the assay on Ba/F3‐FGFR1‐V561F [2] (100 nM, 48 h), the apoptosis is 71.01%. In addition, the “tumor growth inhibition (TGI)” value in the assay on Ba/F3‐FGFR1 xenograft (20 mg/kg) is on record as 76.5%; in [3] (20 mg/kg, p.o., q2d) it was 73.4%. Further, the “IHC (pFGFR1) and TUNEL in tumor tissues” value with Ba/F3‐FGFR1 xenograft (12 days) was “inhibits the FGFR1 activation and induces apoptosis”; in assay [3] (12 days) it was “inhibits the FGFR1 activation and induces apoptosis”. In assay [6] (H1581), the “dose with obvious inhibition of pFRS2 and pERK” value is no less than 3.7 nM. Besides, the “total level of FGFR1 protein expression” value in assay [6] (H1581) is on record as “no obvious effect”. In assay [6] (H1581, 4 h, 3.7 nM to 300 nM), the “FGFR1 phosphorylation, downstream FRS2 and ERK1/2” value is “dose‐dependent inhibition”. The “effect on pAKT” value in assay [6] (H1581, even at 300 nM) is recorded as “no effect”. Moreover, in assay [7], the “dose showing obvious degradation of FGFR1” value is reported as no less than 33.3 nM.
